In one series the target is human mGlu2 receptor (Homo sapiens (Human), UniProt Q14416). Put plainly: Assessment of mGlu2 receptor negative allosteric modulator activity in human mGlu2 receptor stable expressing cells (aequorin luminescence, EC80 glutamate). It counts as cell-based. Conditions: human mGlu2 receptor stable expressing HEK cells; compound added 120 seconds before EC80 glutamate; luminescence (RLU); read-out: mGluR2 NAM IC50 (nM) or inhibition rate (%). As to the method:
Test 1: Assessment with Human mGlu2 Receptor Stable Expressing Cells
(1) Human mGlu2 Receptor Stable Expressing Cells
Human mGlu2 receptor stable expressing cells were prepared, and used for incubation. Specifically, human mGlu2 receptor gene was inserted into pcDNA4/TO (K1020-01, Life technologies, Carlsbad, Calif., USA), and introduced into TR-expressed human kidney-derived HEK cells (cat #CCL-82.2, ATCC, USA), followed by screening with Geneticin (cat #10131-027, Life technologies, Carlsbad, Calif., USA), to obtain human mGlu2 receptor stable expressing cells.
High glucose-DMEM media (cat #11995-065, Life technologies, Carlsbad, Calif., USA) containing 10% Dialysed-FBS (cat #26400-044, Life technologies, Carlsbad, Calif., USA), 50 μg/mL Blasticidin S (cat #ANT-BL-1, Life technologies, Carlsbad, Calif., USA), and 2 mg/mL G418 (cat #16513-84, nacalai tesque, Kyoto, Japan) were used for incubation on flasks for cell culture (cat #3133-150, AGC Thechno Glass, Shizuoka, Japan). During the incubation, cells were recovered by the treatment with TrypLE Express (cat #12604-013, Life technologies, Carlsbad, Calif., USA), followed by subculture, every three to four days.
Cells were recovered by an about 80% confluency in the treatment with TrypLE Express three to four days after the subculture, transiently transfected with Ga16, apoaequorin, in media of Hanks (cat #14065-056, Life technologies, Carlsbad, Calif., USA)/20 mmol/L HEPES (cat #15630-080, Life technologies, Carlsbad, Calif., USA) Buffer (pH 7.4) containing 0.1% BSA (cat #12604-013, Life technologies, Carlsbad, Calif., USA) and 0.1 μg/mL Tetracycline (cat #33031-64, nacalai tesque, Kyoto, Japan), and then seeded on a 384-well plate (cat #781090, Greiner bio-one, Frickenhausen, Germany) in 1,500 cells/30 μL/well.
Coelentetrazine h (cat #S2011, Promega, Madison, Wis., USA) was added to the plate (10 μl/well) so as to be a final concentration of 1 μmol/L on the day after the seeding, and let stand for 4 hours or more at room temperature after centrifugation.
(2) Preparation of Test Compounds
A test compound was dissolved in DMSO so as to be a concentration 1000 times higher than the assessment concentration. This DMSO solution was diluted with a medium (Hanks, 20 mmol/L HEPES, 0.1% BSA) to a concentration 6 times higher than the assessment concentration. Glutamate was diluted with Hanks/20 mmol/L HEPES/0.1% BSA medium to a concentration 6 times higher than EC80 concentration.
(3) Assessment of mGlu2 Receptor Negative Allosteric Modulator Activity
Human mGlu2 receptor stable expressing cells were prepared and incubated. Luminescence signals by mGlu2 receptor stimulation were detected with FDSS7000 (Hamamatsu Photonics). The compound solution prepared above was added to a plate where cells and luminescent substrates were added (10 μl/well). After 120 seconds of the addition, EC80 Glutamate-containing solution was added thereto (10 μl/well), and luminescence signals were measured for 300 seconds after the addition (center wavelength: 465 nm) for calculation of RLU (Integration). mGlu2 receptor negative allosteric modulator activity of a compound was calculated by (100-100×(RLU of each compound and concentration)/(RLU of DMSO group)).
The present compound was assessed with the above biological test, and the compounds with mGlu2 receptor negative allosteric modulator activity were found out. mGlu2 receptor negative allosteric modulator activity (IC50 value (nmol/L)) for each compound is shown in the following table.

A further series has as its target CYP3A4 (Homo sapiens (Human), UniProt P08684). Put plainly: Assessment of MBI and enzyme inactivation clearance against CYP3A4 (human liver microsomes, midazolam or testosterone as substrate). It counts as in vitro ADME. The conditions noted are these: for microsomal CLint: probe midazolam or testosterone, CYP3A4, human liver microsomes, CLint = kinact/KI x CYP contents; for CYP3A4 MBI: shift in IC50 values due to preincubation with NADPH, human liver microsomes, MBI potential when 2-fold or more, N.D. = Not Detected. The text has this:
Test 4: Assessment of MBT and Enzyme Inactivation Clearance Against CYP3A4
Cytochrome P450 (hereinafter called CYP) is the most important enzyme group associated with drug metabolism, and most of pharmacokinetic interactions are based on the inhibition of the CYP activities. CYP includes multiple molecular species. In particular, CYP3A4 is most involved in drug metabolism in oxidation reaction with CYP, and accounts for a major portion of CYPs existing in the liver.
CYP inhibition is generally divided into two types consisting of “reversible inhibition” and “irreversible inhibition (mechanism-based inhibition: MBI)”. In particular, CYP inhibition based on the MBI is known to have a possibility to cause severe side effects such as hepatotoxicity as well as drug-drug interactions (Curr Opin Drug Discov Devel. 2010 January, 13(1), 66-77, Therapeutics and Clinical Risk Management, 2005, 1(1), 3-13).
MBI and enzyme inactivation clearance against CYP3A4 were evaluated for example compounds.
Inhibition effects and inhibition types of test compounds to CYP3A4 were evaluated using human liver microsomes as an enzyme source and midazolam or testosterone as a substrate of CYP3A4. After metabolic reaction for 30 minutes at 37° C., metabolites of CYP3A4 substrate in the presence or absence of a test compound (at 4 concentrations) were measured by LC-MS/MS, and the inhibition rates were calculated from the ratios of peak area. IC50 values were calculated from plots of test compound concentrations. It was known that when a test compound has MBI potential, IC50 value is lowered by starting metabolic reactions after preincubation in the presence of NADPH (cofactor). Therefore, it was determined that there was MBI potential when the shift in IC50 values due to preincubation was 2-fold or more (Xenobiotica, 2009, 39(2), 99-112).
When MBI potential was determined, kinact (maximum inactivation rate constant) and KI (inactivator concentration yielding a measured inactivation rate at half of kinact) were calculated by the non-linear least-squares method. Enzyme inactivation clearance was calculated according to the method described in Drug Metabolism and Disposition, 2011, 39(7), 1247-1254 (CLint=kinact/KI([…])×CYP contents (pmol/mg protein)).
On the technique in general: Liver microsomes are vesicles of endoplasmic reticulum, rich in cytochrome P450 enzymes.

The record followed here is patent publication US11633395B2, “Substituted pyrazolo[1,5-a]pyrazines as negative allosteric modulators of group II metabotropic glutamate receptor” (Sumitomo Pharma Co., Ltd., priority 2017, dated 2023).

Molecules are shown by their SMILES.

Chain of human mGlu2 receptor (Q14416 19-872): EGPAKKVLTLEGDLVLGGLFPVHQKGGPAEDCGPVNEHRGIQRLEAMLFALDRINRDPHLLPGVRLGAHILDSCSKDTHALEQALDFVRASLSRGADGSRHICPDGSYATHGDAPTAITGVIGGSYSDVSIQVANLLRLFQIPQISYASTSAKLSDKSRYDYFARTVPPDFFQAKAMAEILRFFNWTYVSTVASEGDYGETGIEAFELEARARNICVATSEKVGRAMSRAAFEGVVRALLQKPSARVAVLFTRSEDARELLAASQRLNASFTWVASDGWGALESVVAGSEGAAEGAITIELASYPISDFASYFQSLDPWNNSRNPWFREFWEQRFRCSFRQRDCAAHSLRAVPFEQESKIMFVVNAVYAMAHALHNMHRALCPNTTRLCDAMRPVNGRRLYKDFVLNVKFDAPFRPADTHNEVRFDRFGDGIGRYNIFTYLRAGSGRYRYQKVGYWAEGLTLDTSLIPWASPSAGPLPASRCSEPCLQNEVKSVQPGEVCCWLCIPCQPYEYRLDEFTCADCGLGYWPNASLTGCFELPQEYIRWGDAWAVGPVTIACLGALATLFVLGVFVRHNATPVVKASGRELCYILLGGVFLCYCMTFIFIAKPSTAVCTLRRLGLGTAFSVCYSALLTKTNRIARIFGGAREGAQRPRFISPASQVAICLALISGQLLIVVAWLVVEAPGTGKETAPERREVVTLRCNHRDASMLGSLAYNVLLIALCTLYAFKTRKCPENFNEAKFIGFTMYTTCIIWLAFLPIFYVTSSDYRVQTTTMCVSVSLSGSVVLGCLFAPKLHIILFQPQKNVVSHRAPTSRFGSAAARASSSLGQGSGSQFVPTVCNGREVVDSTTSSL
Chain of CYP3A4 (P08684 whole entry): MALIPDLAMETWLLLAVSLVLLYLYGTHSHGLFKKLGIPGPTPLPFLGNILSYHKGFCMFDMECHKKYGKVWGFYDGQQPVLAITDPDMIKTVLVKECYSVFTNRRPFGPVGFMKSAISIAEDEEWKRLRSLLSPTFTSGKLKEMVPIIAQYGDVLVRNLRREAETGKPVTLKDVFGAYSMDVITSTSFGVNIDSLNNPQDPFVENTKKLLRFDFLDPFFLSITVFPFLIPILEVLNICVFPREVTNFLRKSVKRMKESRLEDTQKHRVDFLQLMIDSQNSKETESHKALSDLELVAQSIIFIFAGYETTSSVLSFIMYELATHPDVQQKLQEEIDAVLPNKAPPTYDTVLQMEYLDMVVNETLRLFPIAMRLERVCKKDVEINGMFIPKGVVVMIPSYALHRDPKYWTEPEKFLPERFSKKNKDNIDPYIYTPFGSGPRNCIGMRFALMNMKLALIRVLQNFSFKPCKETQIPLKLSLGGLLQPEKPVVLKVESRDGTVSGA

Consider `C[C@H]1CN(c2ccc(C(F)(F)F)cc2)C(=O)c2c(-c3ccc4nc(N)cn4c3)cnn21` [Example 10, (7S)-3-(2-aminoimidazo[1,2-a]pyridin-6-yl)-7-methyl-5-[4-(trifluoromethyl)phenyl]-6,7-dihydropyrazolo[1,5-a]pyrazin-4(5H)-one], for which the IC50 on human mGlu2 receptor was determined as 302 nM.
On the same count and under the same terms, as for `C[C@H]1CN(c2ccc(C(F)F)cc2)C(=O)c2c(-c3ccc4nccn4c3)cnn21` [Example 4, (7S)-5-[4-(difluoromethyl)phenyl]-3-(imidazo[1,2-a]pyridin-6-yl)-7-methyl-6,7-dihydropyrazolo[1,5-a]pyrazin-4(5H)-one], the figure is 33 nM; as for `C[C@H]1CN(c2ccc(C(F)(F)F)cc2)C(=O)c2c(-c3cn4ccnc4cn3)cnn21` [Example 2, (7S)-3-(imidazo[1,2-a]pyrazin-6-yl)-7-methyl-5-[4-(trifluoromethyl)phenyl]-6,7-dihydropyrazolo[1,5-a]pyrazin-4(5H)-one], 11 nM.
`C[C@H]1CN(c2ccc(C(F)(F)F)cn2)C(=O)c2c(-c3ccc4nccn4c3)cnn21` [Example 12, (7S)-3-(imidazo[1,2-a]pyridin-6-yl)-7-methyl-5-[5-(trifluoromethyl)pyridin-2-yl]-6,7-dihydropyrazolo[1,5-a]pyrazin-4(5H)-one]: on CYP3A4, the microsomal CLint is 0.159 µL/min/mg and the “CYP3A4 MBI” value came out at 2.2.
For `CCCc1cnc2ccc(-c3cnn4c3C(=O)N(c3ccc(C(F)(F)F)cc3)C[C@@H]4C)cn12` [Example 16, (7S)-7-methyl-3-(3-propylimidazo[1,2-a]pyridin-6-yl)-5-[4-(trifluoromethyl)phenyl]-6,7-dihydropyrazolo[1,5-a]pyrazin-4(5H)-one], the IC50 on human mGlu2 receptor worked out at 13 nM.
For the molecule `C[C@H]1CN(c2ccc(C(F)(F)F)cc2)C(=O)c2c(-c3ccc4ncc(N)n4c3)cnn21` [Example 11, (7S)-3-(3-aminoimidazo[1,2-a]pyridin-6-yl)-7-methyl-5-[4-(trifluoromethyl)phenyl]-6,7-dihydropyrazolo[1,5-a]pyrazin-4(5H)-one], the IC50 on human mGlu2 receptor came out at 78 nM.
Still for that read-out and setting: as for `C[C@H]1CN(c2ccc(OC(F)F)cc2)C(=O)c2c(-c3ccc4nccn4c3)cnn21` [Example 9, (7S)-5-[4-(difluoromethoxy)phenyl]-3-(imidazo[1,2-a]pyridin-6-yl)-7-methyl-6,7-dihydropyrazolo[1,5-a]pyrazin-4(5H)-one], the figure is 61 nM.
Turning to `C[C@H]1CN(c2ccc3c(c2)OC(F)(F)O3)C(=O)c2c(-c3ccc4nccn4c3)cnn21` [Example 8, (7S)-5-(2,2-difluoro-1,3-benzodioxol-5-yl)-3-(imidazo[1,2-a]pyridin-6-yl)-7-methyl-6,7-dihydropyrazolo[1,5-a]pyrazin-4(5H)-one], on CYP3A4, the microsomal CLint was 0.601 µL/min/mg and the “CYP3A4 MBI” value is given as 2.2.
For the molecule `C[C@H]1CN(c2ccc(C(F)(F)F)cc2)C(=O)c2c(-c3ccc4nccn4c3)cnn21` [Example 1, (7S)-3-(imidazo[1,2-a]pyridin-6-yl)-7-methyl-5-[4-(trifluoromethyl)phenyl]-6,7-dihydropyrazolo[1,5-a]pyrazin-4(5H)-one], the IC50 on human mGlu2 receptor worked out at 18 nM.
As for `C[C@H]1CN(c2ccc(C(F)(F)F)cc2)C(=O)c2c(-c3ccc4ncc(F)n4c3)cnn21` [Example 13, (7S)-3-(3-fluoroimidazo[1,2-a]pyridin-6-yl)-7-methyl-5-[4-(trifluoromethyl)phenyl]-6,7-dihydropyrazolo[1,5-a]pyrazin-4(5H)-one], at human mGlu2 receptor, the IC50 stood at 7.9 nM.
For `C[C@H]1CN(c2ccc(Cl)s2)C(=O)c2c(-c3ccc4nccn4c3)cnn21` [Example 7, (7S)-5-(5-chlorothiophen-2-yl)-3-(imidazo[1,2-a]pyridin-6-yl)-7-methyl-6,7-dihydropyrazolo[1,5-a]pyrazin-4(5H)-one], at CYP3A4, the microsomal CLint was determined as 2.15 µL/min/mg and the “CYP3A4 MBI” value stood at 4.5. In addition, the concentration for half-maximal inhibition (IC50) at human mGlu2 receptor stood at 11 nM.
For `C[C@H]1CN(c2ccc(F)c(Cl)c2)C(=O)c2c(-c3ccc4nccn4c3)cnn21` [Example 3, (7S)-5-(3-chloro-4-fluorophenyl)-3-(imidazo[1,2-a]pyridin-6-yl)-7-methyl-6,7-dihydropyrazolo[1,5-a]pyrazin-4 (5H)-one], the IC50 on human mGlu2 receptor is 23 nM.
Consider `Cc1cc(N2C[C@H](C)n3ncc(-c4ccc5nccn5c4)c3C2=O)ccc1F` [Example 17, (7S)-5-(4-fluoro-3-methylphenyl)-3-(imidazo[1,2-a]pyridin-6-yl)-7-methyl-6,7-dihydropyrazolo[1,5-a]pyrazin-4(5H)-one], for which, on CYP3A4, the intrinsic clearance (microsomal CLint) came out at 1.94 µL/min/mg and the “CYP3A4 MBI” value stood at 3.2. Besides, at human mGlu2 receptor, the IC50 came out at 17 nM.
Regarding `Cc1cc(N2C[C@H](C)n3ncc(-c4ccc5ncc(F)n5c4)c3C2=O)ccc1F` [Example 18, (7S)-3-(3-fluoroimidazo[1,2-a]pyridin-6-yl)-5-(4-fluoro-3-methylphenyl)-7-methyl-6,7-dihydropyrazolo[1,5-a]pyrazin-4(5H)-one], the IC50 on human mGlu2 receptor came to 6.9 nM.

By IC50 is commonly meant the point on the concentration scale where inhibition reaches its midpoint. The microsomal CLint is the capacity of the preparation to metabolise the compound, expressed as a volume cleared per time.
